Source: paper PMC10388354, “Ir(III) Compounds Containing a Terdentate Ligand Are Potent Inhibitors of Proliferation and Effective Antimetastatic Agents in Aggressive Triple-Negative Breast Cancer Cells” (Journal of Medicinal Chemistry, 2023)

Columns and labels:
Assay type in all cases: cell-based, human
Vimentin = experiment: RT-qPCR of EMT-related gene transcripts; settings: MDA-MB-231, 24 h, IC50,72h
Description: (§1) MDA-MB-231 cells were seeded on a six-well plate at the density of 0.5 × 10^6 cells per well and incubated overnight. […] Cells were harvested, and total RNA was isolated using NucleoSpin RNA columns (Machery Nagel, GE). One-step qPCR combining reverse transcription followed by amplification thermal cycling was applied using a Luna Universal One-Step RT-qPCR (New England BioLabs, MA, USA). Experiments were performed on an Illumina Eco Real-Time PCR (Illumina, CA, USA). The thermal profile was as follows: reverse transcription for 10 min at 55 °C and initial denaturation for 1 min at 95 °C, followed by 43 thermal cycles of denaturation for 10 s at 95 °C and extension for 30 s at 60 °C. Primer sequences were as follows: Β-actin-F: […]; Β-actin-R: […]; Vim-F: […]; Vim-R: […]; E-Cadherin-F: […]; E-Cadherin-R: […]; N-Cadherin-F: […]; N-Cadherin-R: […]; B-Catenin-F: […]; B-Catenin-R: […]; SNAI1-F: […]; SNAI1-R: […]. Purified primers were from Generi Biotech (Czech Republic). All runs included melting curve analysis and template-free negative technical controls to confirm specific single-product amplification. Β-actin was used as an internal control. The relative expression of mRNA is represented as a fold increase (2^–ΔΔCt).[69]

SNAI1 = experiment: RT-qPCR of EMT-related gene transcripts; settings: MDA-MB-231, 24 h, IC50,72h
Description: as §1

E-Cadherin = experiment: RT-qPCR of EMT-related gene transcripts; settings: MDA-MB-231, 24 h, IC50,72h
Description: as §1

N-Cadherin = experiment: RT-qPCR of EMT-related gene transcripts; settings: MDA-MB-231, 24 h, IC50,72h
Description: as §1

B-catenin = experiment: RT-qPCR of EMT-related gene transcripts; settings: MDA-MB-231, 24 h, IC50,72h
Description: as §1

[1] = test system: spheroids generated from MDA-MB-231 cells; experiment: Morphological quantification of 3D tumor spheroids and cell-invasive potential; settings: for protrusion occurrence (length): control 32 μm
Text: The cancer cell transition from proliferation to invasion is usually initiated by nutrient stress and unfavorable conditions caused by the progressive growth of the primary tumor.[63] To study the dynamics of cells to evade the primary tumor, we monitored the morphology of spheroids generated from MDA-MB-231 cells embedded in an agar matrix.[64] Multicellular tumor spheroids represent the most used 3D in vitro model[65] and offer the opportunity to study the invasive potential of cancer cells under conditions much closer to the in vivo situation than when the traditional Transwell assay is used.[64] Morphological parameters were utilized to evaluate the invasive potential of spheroids generated from MDA-MB-231 cells.[66] Spheroid perimeter is the most useful morphological parameter for quantifying overall proliferation, whereas roundness, shape integrity, and quantification of protrusion occurrence are the morphological parameters related to the invasion potential.[64],[66] At the most compact stage, cells on the surface follow the contour of the spheroid. This morphology resembles the proliferating but not invading character of the spheroid, whereas diffuse and rough borders are the signs of the invasive character of peripheral cells. Assessment of the spheroid circularity (roundness) was analyzed by the automated edge detection and measurement of the enclosed area. A circularity equal to one indicates a perfectly circular spheroid, whereas lower values indicate a loss of circularity. The solidity is an indicator of the regularity of the spheroids’ surface or its roughness and thus can be considered the indicator of the primary protrusions and the overall regularity of the spheroid.[66]
MDA-MB-231 cells were seeded in a sandwich agar matrix (0.5% bottom gel and 0.35% upper cell-containing gel). First, wells of 24-well plates were covered with 0.5% agar gel, and then MDA-MB-231 cells were resuspended in 0.35% agar matrix. The detailed protocol was as follows: Stock solution of agar gel was prepared by autoclaving 1 g of agar in 100 mL of PBS for at least a 20 min liquid cycle. Twenty-four-well plates were covered with 1 mL of 0.5% agar created by mixing 1% agar solution with cultivation media in 1:1 ratio. The dish was then layered with 1 mL of 0.35% agar composed of 0.35 mL of 1% agar and 0.65 mL of cultivation media containing 10^5 MDA-MB-231 cells. After gel solidification, the dish was covered with 2 mL of cultivation media. Mixing of agar solution and media was carried out after the agar solution cooled to approximately 40 °C to prevent damage by high temperature. Cells were cultured for an additional 7 days to establish spheroid structures, then treated with tested compounds at the equitoxic concentration corresponding to IC50,72h, and cultured for an additional 72 h. Samples were photographed on a phase contrast microscope (Olympus CKX41), and images were processed and analyzed for morphology parameters in ImageJ software.

MDA-MB-231 VIM RFP cells [2] = experiment: Morphology of the vimentin intermediate filament network by confocal microscopy; settings: 24 h, IC50,72h
Description: MDA-MB-231 VIM RFP cells were seeded on 35 mm confocal Petri dishes (Mattek) at the density of 2.5 × 10^5 cells per dish and incubated overnight. […] Then, samples were washed with PBS, fixed with 3.7% formaldehyde (10 min, RT), and mounted with ProLong Diamond Antifade Mountant with DAPI. Samples were visualized with a confocal microscope Leica SP8 SMD operated under the deconvolution lightning mode.

MDA-MB-231 cells = experiment: Anti-invasion activity, real-time monitoring (xCELLigence RTCA CIM plate); settings: cells treated with IC50,72h for 24 h before seeding; monitored 7 days; untreated control 21 h
Description: The anti-invasive effects of the investigated Ir complexes in real time were assessed by the xCELLigence DP instrument with the migration RTCA CIM plate 16.[48] This system is based on the principle of the Boyden chamber that allows real-time monitoring of the number of invading cells. When cells migrate from the upper to lower wells through the microporous membrane with integrated microelectrodes, they contact and adhere to the microelectrodes affecting the impedance. The output of the experiment performed with this system is the dimensionless cell index (CI); when the cells invade, the CI increases. Moreover, it is possible to analyze the time from cell seeding to the time when invasion through the membrane matrix for each sample treated with tested compounds started (tinv). This period is determined by the intersection of the curve corresponding to the particular time-dependent cell response profile (TCRP) with the straight line corresponding to the threshold value (CI = 0). […] The invasion process was monitored for 7 days to determine whether cell death occurred during the subsequent time after the invasion was observed.
Anti-invasion activity was monitored by the xCELLigence system (Roche). […] Samples were continuously monitored every 5 min for an additional 7 days. […]

[3] = test system: vimentin in MDA-MB-231 VIM RFP cells; experiment: Flow cytometric quantification of vimentin (VIM RFP reporter); settings: 72 h
Description: Quantification of vimentin expression after the treatment of MDA-MB-231 VIM RFP cells with tested compounds was determined with flow cytometry. MDA-MB-231 VIM RFP cells were seeded at the density of 1 × 10^4 cells/well and incubated overnight. […] After 72 h of incubation, cells were trypsinized and analyzed on a flow cytometer Cell Stream (Luminex, USA). The data were processed using Cell Stream analysis software or FCS Express 7 (DeNovo Software, CA). The fluorescence coming from the VIM RFP tag is proportional to the expression of vimentin in treated cells. Each sample analyzed by flow cytometry consisted of at least 30,000 events.

MCF-10A cells = experiment: Antiproliferative activity, sulforhodamine B (SRB) assay, non-malignant cells
Description: The antiproliferative activity of the investigated compounds was evaluated using the SRB assay. The cells were seeded in 96-well tissue culture plates at a density of 3 × 10^3 cells/well in 100 μL of the medium. After overnight incubation in a humidified CO2 incubator, the cells were treated with the tested compounds in a final volume of 200 μL/well. After an additional 72 h, cells were washed with PBS and fixed for 1 h at 4 °C with trichloroacetic acid. Then, the cells were stained with 0.4% SRB dye for 30 min. Stained cells were dissolved with Tris (10 mM). The cell viability was evaluated by measurement of the absorbance at 570 nm using an absorbance reader (SPARK TECAN, SCHOELLER). The reading values were converted to the percentage of control (% cell survival). Antiproliferative effects were expressed as IC50 values calculated from curves constructed by plotting cell survival (%) versus drug concentration (μM) (IC50 = concentration of the agent inhibiting cell growth by 50%). Concentrations of compounds present in the medium during the treatment were verified by FAAS or ICP-MS.

MDA-MB-231 VIM RFP cells [4] = experiment: Wound healing assay
Description: MDA-MB-231 VIM RFP cells were seeded on 35 mm confocal Petri dishes (Mattek) at the density of 3 × 10^5 cells/dish and incubated overnight or for a further 24–48 h to reach approximately 70% confluency. Defined scratch (220 μm width) was done under continuous suction with the pipette tip. Cells were washed, and the medium was replaced with the culture medium supplemented with tested compounds, applied at the equitoxic concentration (IC50,72h). Samples were incubated for an additional 24 h before fixation with 3.7% formaldehyde (10 min, RT) and mounted with ProLong Diamond Antifade Mountant (LifeSciences, Thermo Fisher Scientific). Samples were visualized with a confocal microscope Leica SP8 SMD operated under the deconvolution lightning mode. Images were analyzed by using ImageJ software. The scratch boundaries were identified with the MRI wound healing tool ImageJ plugin or identified manually.

[5] = β-actin reference, untreated control as calibrator
[6] = one week-old spheroids, 72 h treatment at IC50,72h

`COc1cccc2c1C(=O)c1c(O)c3c(c(O)c1C2=O)C[C@@](O)(C(=O)CO)C[C@@H]3O[C@H]1C[C@H](N)[C@H](O)[C@H](C)O1` [Dox, doxorubicin] was tested, and the “effect on expression of vimentin” value (Vimentin) was “slightly upregulated also the expression of vimentin”, the “relative mRNA expression Vimentin (2^–ΔΔCt)” value (Vimentin; [5]) was 1.21 and the “upregulation of expression of SNAI1” value (SNAI1) was ~2 fold. The “relative mRNA expression SNAI1 (2^–ΔΔCt)” value (SNAI1; [5]) was 1.63, the “effect on expression of E-cadherin” value (E-Cadherin) was “the expression of E-cadherin slightly decreased” and the “relative mRNA expression E-Cadherin (2^–ΔΔCt)” value (E-Cadherin; [5]) was 0.73. For the same compound, the “upregulation of expression of N-cadherin” value (N-Cadherin) was ~3 fold, the “relative mRNA expression N-Cadherin (2^–ΔΔCt)” value (N-Cadherin; [5]) was 3.39 and the “upregulation of expression of β-catenin” value (B-catenin) was ~3 fold. For the same compound, the “relative mRNA expression B-catenin (2^–ΔΔCt)” value (B-catenin; [5]) was 2.86, the “mean perimeter of spheroids” value ([1]; 72 h treatment at IC50,72h, control 2.1 mm) was “about 2.8 mm” and the solidity ([1]; one week-old spheroids, 72 h at IC50,72h, control 3.0, Ir1 value affected by collapse of the spheroid structure) was 6.3. For the same compound, the “secondary protrusions (SP)” value [1, 6] was “secondary protrusions were identified”, the circularity ([1]; one week-old spheroids, 72 h treatment at IC50,72h, control 0.96) was 0.66 and the “protrusion occurrence (number)” value ([1]; one week-old spheroids, 72 h treatment at IC50,72h, control 4) was 2. For the same compound, the “protrusion occurrence (length)” value [1, 6] was 73 μm, the “protrusion occurrence (length)” value ([1]; one week-old spheroids, 72 h treatment at IC50,72h, listed as doxorubicin) was “up to 73 μm” and the perimeter ([1]; one week-old spheroids, 72 h treatment at IC50,72h, control 2120 ± 310) was 2820 ± 506 μm. For the same compound, the “morphology of vimentin intermediate filaments” value (MDA-MB-231 VIM RFP cells [2]) was “adopted a typical structure”, the “tinv, period needed to invade through the matrix membrane” value (MDA-MB-231 cells) was “approximately 35 h” and the “RFP fluorescence of VIM RFP reporter” value ([3]; 2-fold IC50,72h) was “somewhat suppressed the RFP fluorescence”. For the same compound, the “vimentin expression” value ([3]; sub-toxic concentrations) was “considerably increased vimentin expression”, the IC50 (MCF-10A cells; Homo sapiens, MCF-10A, SRB assay, 72 h incubation, mean ± SD, non-cancerous cells) was 8.6 ± 0.8 µM and the “SI, average selectivity index” value (MCF-10A cells; IC50 (MCF-10A)/average IC50 (MDA-MB-231 and MCF-7)) was ~18. The “wound healing assay observation” value (MDA-MB-231 VIM RFP cells [4]; 24 h, IC50,72h) was “induced formation of the pseudopods” and the wound closure capacity (MDA-MB-231 VIM RFP cells [4]; 24 h after treatment with IC50,72h, untreated control 70%) was 67%.
